Data published in US6300331A, “Naphthalimidobenzamide derivatives” (Taiho Pharmaceutical Co., Ltd., priority 1998, dated 2001).
Structures can show the parent of a compound that is named as a salt. Where two headings read alike, the source gives them in different places.

Assays:
KB cells = assay: Cytotoxicity against KB cells (crystal violet dying method); format: cell-based; settings: Homo sapiens, read-out: Cytotoxicity [IC50 (μM)]
Method: Test 1 Cytotoxicity against KB cells
The residue was re-suspended in an MEM medium containing 10% fetal bovine serum. Then, an equivalent amount of a 0.2% trypan blue solution was added to a portion of the cell suspension, followed by mixing. The number of living cells which had not been dyed with the trypan blue was counted by a hemocytometer and the suspension was diluted and adjusted with the above-described culture medium to give a cell concentration of 1×10^4 cells/ml. Each well of a 96-well plate was inoculated with a 100-μl portion of the resulting suspension, in other words, was inoculated to give a concentration of 1×10^3 cells/well.
To the cells cultured in a CO2 incubator for 24 hours after the inoculation was added 100 μl/well of a medicament solution, followed by culturing for 72 hours. To a control was added 100 μl of an MEM medium.
The cytotoxicity of the medicament was determined from a change in the number of the cells by using the crystal violet dying method.
After washing the plate with water, 100 μl/well of a 0.05% crystal violet solution dissolved in 20% methanol was added to dye the cells therewith for about 15 minutes. The plate was washed to remove the unbound crystal violet, followed by the addition of 100 μl/well of 0.05M NaH2 PO4 /ethanol (1:1 v/v), whereby the crystal violet bound to the cellular protein was extracted.

[1] = tested on: region abundant in guanine and cytosine; assay: interaction with DNA region abundant in guanine and cytosine; format: binding
Text: (§1) The naphthalimidobenzamide derivatives (1) or salts thereof according to the present invention are compounds synthesized to have a high affinity with DNA and base sequence selectivity. As a result of various investigations, it has been confirmed that the compounds of the present invention each has a high affinity with DNA based on the results of various tests including a test using ethidium bromide displacement assay or the like. It has also been confirmed that they have stronger affinities with respective base sequence regions.

[2] = tested on: region abundant in adenine and thymine; assay: interaction with DNA region abundant in adenine and thymine; format: binding
Text: as §1

[3] = tested on: human breast cancer strains MX1; assay: antitumor test in nude mouse subcutaneously transplanted with human breast cancer strains MX1; format: in vivo
[4] = tested on: human skin cancer strains LOX; assay: antitumor test in nude mouse subcutaneously transplanted with human skin cancer strains LOX; format: in vivo
[5] = tested on: human pancreatic cancer strains PAN6; assay: antitumor test in nude mouse subcutaneously transplanted with human pancreatic cancer strains PAN6; format: in vivo
[6] = tested on: human gastric cancer strains AZ521; assay: antitumor test in nude mouse subcutaneously transplanted with human gastric cancer strains AZ521; format: in vivo
[7] = KB cells, 72 hours, 50% proliferation inhibition

Compound | IC50 (KB cells; [7]) | further results
O=C(NCCNCCN1C(=O)c2cccc3cc([N+](=O)[O-])cc(c23)C1=O)c1cc(C(=O)NCCNCCN2C(=O)c3cccc4cc([N+](=O)[O-])cc(c34)C2=O)cc(N2C(=O)c3cccc4cc([N+](=O)[O-])cc(c34)C2=O)c1 [Example 4, 1,3-bis[N-[2-[[2-(3-nitro-1,8-naphthalimido)ethyl]amino]ethyl]carbamoyl]-5-(3-nitro-1,8-naphthalimido)benzene dihydrochloride] | 0.048 µM | interaction with a region abundant in guanine and cytosine [1]: strong interaction
Cn1cc(NC(=O)c2cc(NC=O)cn2C)cc1C(=O)NCCNCCNC(=O)c1cc(C(=O)NCCNCCNC(=O)c2cc(NC(=O)c3cc(NC=O)cn3C)cn2C)cc(N2C(=O)c3cccc4cc([N+](=O)[O-])cc(c34)C2=O)c1 [Example 30, 1,3-bis[N-[2-[[2-[4-(4-formamido-1-methylpyrrole-2-carbonylamino)-1-methylpyrrole-2-carbonylamino]ethyl]amino]ethyl]carbamoyl]-5-(3-nitro-1,8-naphthalimido)benzene dihydrochloride] |  | interaction with a region abundant in adenine and thymine [2]: strong interaction
CN(C)CCCNC(=O)c1cc(C(=O)NCCNCCN2C(=O)c3cccc4cc([N+](=O)[O-])cc(c34)C2=O)cc(N2C(=O)c3cccc4cc([N+](=O)[O-])cc(c34)C2=O)c1 [Example 41, 1-[N-(3-dimethylaminopropyl)carbamoyl]-3-(3-nitro-1,8-naphthalimido)-5-[N-[2-[[2-(3-nitro-1,8-naphthalimido)ethyl]amino]ethyl]carbamoyl]benzene hydrochloride] | 3.1 µM | 
CN(C)CCNC(=O)c1cc(C(=O)NCCNCCN2C(=O)c3cccc4cc([N+](=O)[O-])cc(c34)C2=O)cc(N2C(=O)c3cccc4cc([N+](=O)[O-])cc(c34)C2=O)c1 [Example 42, 1-[N-(2-dimethylaminoethyl)carbamoyl]-3-(3-nitro-1,8-naphthalimido)-5-[N-[2-[[2-(3-nitro-1,8-naphthalimido)ethyl]amino]ethyl]carbamoyl]benzene hydrochloride] | 0.15 µM | 
CNC(=O)c1cc(C(=O)NCCNCCN2C(=O)c3cccc4cc([N+](=O)[O-])cc(c34)C2=O)cc(N2C(=O)c3cccc4cc([N+](=O)[O-])cc(c34)C2=O)c1 [Example 43, 1-methylcarbamoyl-3-(3-nitro-1,8-naphthalimido)-5-[N-[2-[[2-(3-nitro-1,8-naphthalimido)ethyl]amino]ethyl]carbamoyl]benzene hydrochloride] | 0.025 µM | 
O=C(NCCNCCN1C(=O)c2cccc3cc([N+](=O)[O-])cc(c23)C1=O)c1cc(C(=O)NCCN2CCCC2)cc(N2C(=O)c3cccc4cc([N+](=O)[O-])cc(c34)C2=O)c1 [Example 45, 1-(3-nitro-1,8-naphthalimido)-3-[N-[2-[[2-(3-nitro-1,8-naphthalimido)ethyl]amino]ethyl]carbamoyl]-5-[N-(2-pyrrolidinoethyl)carbamoyl]benzene hydrochloride] | 0.066 µM | 
O=C(NCCNCCN1C(=O)c2cccc3cc([N+](=O)[O-])cc(c23)C1=O)c1cc(C(=O)NCCN2CCCCC2)cc(N2C(=O)c3cccc4cc([N+](=O)[O-])cc(c34)C2=O)c1 [Example 46, 1-(3-nitro-1,8-naphthalimido)-3-[N-[2-[[2-(3-nitro-1,8-naphthalimido)ethyl]amino]ethyl]carbamoyl]-5-[N-(2-piperidinoethyl)carbamoyl]benzene hydrochloride] |  | inhibitory effects against tumor proliferation [3]: 71.8%; IC50 (KB cells; KB, 72 h): 0.053 µM; inhibitory effects against tumor proliferation [4]: 96.2%; inhibitory effects against tumor proliferation [5]: 59.8%; inhibitory effects against tumor proliferation [6]: 79.5%
O=C(NCCNCCN1C(=O)c2cccc3cccc(c23)C1=O)c1cc(C(=O)NCCN2CCCCC2)cc(N2C(=O)c3cccc4cc([N+](=O)[O-])cc(c34)C2=O)c1 [Example 47, 1-[N-[2-[[2-(1,8-naphthalimido)ethyl]amino]ethyl]carbamoyl]-3-(3-nitro-1,8-naphthalimido)-5-[N-(2-piperidinoethyl)carbamoyl]benzene hydrochloride] | 0.0035 µM | 
O=C(NCCNCCN1C(=O)c2cccc3cc([N+](=O)[O-])cc(c23)C1=O)c1cc(C(=O)N2CCOCC2)cc(N2C(=O)c3cccc4cc([N+](=O)[O-])cc(c34)C2=O)c1 [Example 48, 1-morpholinocarbonyl-3-(3-nitro-1,8-naphthalimido)-5-[N-[2-[[2-(3-nitro-1,8-naphthalimido)ethyl]amino]ethyl]carbamoyl]benzene hydrochloride] | 0.052 µM | 
CN1CCN(C(=O)c2cc(C(=O)NCCNCCN3C(=O)c4cccc5cc([N+](=O)[O-])cc(c45)C3=O)cc(N3C(=O)c4cccc5cc([N+](=O)[O-])cc(c45)C3=O)c2)CC1 [Example 49, 1-(4-methylpiperazino)carbonyl-3-(3-nitro-1,8-naphthalimido)-5-[N-[2-[[2-(3-nitro-1,8-naphthalimido)ethyl]amino]ethyl]carbamoyl]benzene hydrochloride] | 0.035 µM | 
CN1CCN(C(=O)c2cc(C(=O)NCCNCCN3C(=O)c4cccc5cc([N+](=O)[O-])cc(c45)C3=O)cc(N3C(=O)c4cccc5cccc(c45)C3=O)c2)CC1 [Example 50, 1-(4-methylpiperazino)carbonyl-3-(1,8-naphthalimido)-5-[N-[2-[[2-(3-nitro-1,8-naphthalimido)ethyl]amino]ethyl]carbamoyl]benzene hydrochloride] | 0.022 µM | 
CN1CCN(C(=O)c2cc(C(=O)NCCNCCN3C(=O)c4cccc5cccc(c45)C3=O)cc(N3C(=O)c4cccc5cccc(c45)C3=O)c2)CC1 [Example 51, 1-(4-methylpiperazino)carbonyl-3-(1,8-naphthalimido)-5-[N-[2-[[2-(1,8-naphthalimido)ethyl]amino]ethyl]carbamoyl]benzene hydrochloride] | 0.025 µM | 
CCN1CCN(C(=O)c2cc(C(=O)NCCNCCN3C(=O)c4cccc5cccc(c45)C3=O)cc(N3C(=O)c4cccc5cc([N+](=O)[O-])cc(c45)C3=O)c2)CC1 [Example 53, 1-(4-ethylpiperazino)carbonyl-3-[N-[2-[[2-(1,8-naphthalimido)ethyl]amino]ethyl]carbamoyl]-5-(3-nitro-1,8-naphthalimido)benzene hydrochloride] | 0.013 µM | 
O=C(NCCNCCN1C(=O)c2cccc3cc([N+](=O)[O-])cc(c23)C1=O)c1cc(C(=O)N2CCC(N3CCCCC3)CC2)cc(N2C(=O)c3cccc4cc([N+](=O)[O-])cc(c34)C2=O)c1 [Example 55, 1-(3-nitro-1,8-naphthalimido)-3-[N-[2-[[2-(3-nitro-1,8-naphthalimido)ethyl]amino]ethyl]carbamoyl]-5-(4-piperidinopiperidino)carbonylbenzene hydrochloride] | 0.11 µM | 
CN1CCN(C(=O)c2cc(C(=O)NCCCNCCN3C(=O)c4cccc5cc([N+](=O)[O-])cc(c45)C3=O)cc(N3C(=O)c4cccc5cc([N+](=O)[O-])cc(c45)C3=O)c2)CC1 [Example 56 (A), 1-(4-methylpiperazino)carbonyl-3-(3-nitro-1,8-naphthalimido)-5-[N-[3-[[2-(3-nitro-1,8-naphthalimido)ethyl]amino]propyl]carbamoyl]benzene hydrochloride] | 0.039 µM | 
CN1CCN(C(=O)c2cc(C(=O)NCCNCCCN3C(=O)c4cccc5cc([N+](=O)[O-])cc(c45)C3=O)cc(N3C(=O)c4cccc5cc([N+](=O)[O-])cc(c45)C3=O)c2)CC1 [Example 56 (B), 1-(4-methylpiperazino)carbonyl-3-(3-nitro-1,8-naphthalimido)-5-[N-[2-[[3-(3-nitro-1,8-naphthalimido)propyl]amino]ethyl]carbamoyl]benzene hydrochloride] | 0.12 µM | 
